# Data from PubChem BioAssay AID1645868 (Buhrlage Lab, Dana-Farber Cancer Institute and Novartis …, 2021).
# Calls of active or inactive are those of the source.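 Rule for the calls: active = maximal percent inhibition of the deubiquitinase OTUD3 of at least 30% across the tested doses; inactive = the rest.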
# Target: OTU domain-containing protein 3 (Homo sapiens) (UniProt Q5T2D3)
# Assay: Validation of screening hits, potency titration, in vitro enzymatic, OTU domain-containing protein 3 DUB inhibitors (AID 1645868)
# Details: purified OTUD3, ubiquitin-rhodamine cleavage fluorescence, 2 h
# OTU domain-containing protein 3 (Homo sapiens), sequence (Q5T2D3 whole entry, looked up, the tested form may be a part): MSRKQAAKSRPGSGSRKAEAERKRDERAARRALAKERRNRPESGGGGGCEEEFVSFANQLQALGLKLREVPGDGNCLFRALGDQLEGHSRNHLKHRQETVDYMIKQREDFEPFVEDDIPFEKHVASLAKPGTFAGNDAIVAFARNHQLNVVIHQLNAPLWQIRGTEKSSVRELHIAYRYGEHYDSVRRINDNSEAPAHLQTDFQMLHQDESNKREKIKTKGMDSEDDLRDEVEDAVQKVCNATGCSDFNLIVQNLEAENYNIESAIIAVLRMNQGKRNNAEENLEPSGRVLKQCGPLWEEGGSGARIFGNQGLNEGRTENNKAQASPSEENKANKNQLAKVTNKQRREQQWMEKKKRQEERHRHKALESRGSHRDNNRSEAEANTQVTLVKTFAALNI
row,SMILES,IC50
1,O=c1sc2ccccc2c(=O)n1Cc1cccc(C(F)(F)F)c1,> 50 µM (inactive)
2,CN1CC2CN(C(=O)Nc3cccnc3)CCN2Cc2ccccc21 (stereo not given),> 50 µM (inactive)
3,Cn1nc(-c2nc(-c3ccccc3)no2)c2c1CCN(C(=O)C1CC1)C2,> 50 µM (inactive)
4,Clc1ccc(C[n+]2cc(-c3ccc(Cl)cc3)n3c2CCC3)cc1,> 50 µM (inactive)
5,N#Cc1ccc(Cl)cc1NC(=O)COc1cccnc1[N+](=O)[O-],> 50 µM (inactive)
6,Cc1c(-c2nc(-c3ccccc3Cl)no2)nnn1-c1cccc(F)c1,> 50 µM (inactive)
7,Cc1cc(C(=O)N2CCN(C3CCN(Cc4ccc(Cl)o4)CC3)C(=O)C2)c(C)o1,> 50 µM (inactive)
8,COc1cccc(N2CCN(C(=O)CCNS(=O)(=O)c3ccc4c(c3)CCC(=O)N4)CC2)c1,> 50 µM (inactive)
9,CCOc1ccc2nc(NC(=O)C3CCN(S(=O)(=O)c4ccc5c(c4)CC(C)N5C(C)=O)CC3)sc2c1 (stereo not given),> 50 µM (inactive)
10,O=C(CC1C(=O)N(Cc2ccccc2)c2nc3ccccc3n21)NCCc1ccccc1 (stereo not given),19.7 µM
11,Cc1sc2ncnc(OCc3ccc(F)cc3Cl)c2c1C,> 50 µM (inactive)
12,N#Cc1cccnc1N1CCN(C(=O)Nc2cccc3ccccc23)CC1,> 50 µM (inactive)
13,CCOc1ccccc1-c1nc(-c2nnn(Cc3ccccc3)c2C)no1,> 50 µM (inactive)
14,CC(OC(=O)c1cn(-c2ccccc2)nc1-c1cccnc1)C(=O)Nc1cccc(S(=O)(=O)N(C)C)c1 (stereo not given),> 50 µM (inactive)
15,Cc1ccc(Nc2nc(NCCc3ccccc3)nc3c2cnn3C)cc1,> 50 µM (inactive)
16,CCCc1nc2sc3c(NCCCN4CCOCC4)ncnc3c2c2c1CCC2,> 50 µM (inactive)
17,Cc1ccc(NC(=O)CSc2nc3c(cc2C#N)C(=O)CCC3)cc1,30.2 µM
18,O=C1CC(NS(=O)(=O)c2ccc3ccccc3c2)CN1c1cccc(F)c1 (stereo not given),> 50 µM (inactive)
19,CCC1(C)Cc2c(sc3nc(SCC(=O)Nc4ccc(C(C)=O)cc4)nc(N)c23)CO1 (stereo not given),32.4 µM

row,SMILES,IC50
1,CCCCc1nc2sc3c(NCCN4CCOCC4)ncnc3c2c2c1CCC2,> 50 µM (inactive)
2,Nc1ncnc(SCc2ccc(Cl)cc2)n1,29.3 µM
3,COc1cc(-c2ccno2)ccc1S(=O)(=O)Nc1ccccc1Cl,> 50 µM (inactive)
4,O=c1c(NCCCN2CCCC2)nc2ccncc2n1Cc1ccccc1,> 50 µM (inactive)
5,CCCN1CCN(C(=O)c2cc(NC(=O)C3CCC3)cc3nc(C)ccc23)CC1,> 50 µM (inactive)
6,CC(=O)c1cccc(NC(=O)c2ccc(N3CCCCC3)nn2)c1,> 50 µM (inactive)
7,C=C1CCC2[C@](C)(CCC[C@]2(C)C(=O)OC)[C@H]1CCc1ccoc1CNC(C)C (stereo not given in full),> 50 µM (inactive)
8,COc1ccc(C2CC(=O)Nc3n[nH]c(-c4ccccc4)c32)cc1OC (stereo not given),> 50 µM (inactive)
9,COc1ccc(Nc2nc3c(S(=O)(=O)c4ccc(C)cc4)nnn3c3ccsc23)c(OC)c1,40.1 µM
10,Cc1ccc(NC(=O)Cn2c(Nc3cccc(C)c3)nc(C)cc2=O)cc1,31 µM
11,Cc1nc(NCc2ccccn2)c2cc(-c3ccccc3)sc2n1,45.3 µM
12,COc1ccccc1CNC(=O)CCCn1c(=O)c2ccccc2n(CC(=O)N2CCN(c3ccccc3)CC2)c1=O,25.5 µM
13,COc1ccc(-c2cc(C(=O)N3CCN(c4ccc([N+](=O)[O-])cc4)CC3)[nH]n2)cc1,> 50 µM (inactive)
14,Cc1c(CC(=O)N2CCN(c3ncccn3)CC2)c(=O)oc2cc(O)ccc12,34.1 µM
15,CC1=C2C(=NCCN1)C(=O)N(c1ccccc1)C2c1cccnc1 (stereo not given),> 50 µM (inactive)
16,CSc1ncc(C(=O)NC(C)c2ccccc2)c(-c2ccccc2)n1 (stereo not given),22.1 µM
17,Cc1nc(N2CCCC2)ncc1-c1cc(=O)[nH]c(N2CCc3ccccc3C2)n1,29.3 µM
18,O=C(c1ccc2ncccc2c1)N1CCC2(C1)Nc1cccnc1NC2=NC1CCCC1 (stereo not given),> 50 µM (inactive)
19,O=C1C[C@@H]2O[C@H](CNC(=O)[C@@H]3CN(CCN3C(=O)C3CCOCC3)C(=O)[C@@H]3C[C@@H](CN3Cc3ccc(F)c(F)c3)N1)[C@@H](O)[C@H]2O,> 50 µM (inactive)

# Now from value to compound:
row,IC50,SMILES
1,> 50 µM (inactive),CNC(=O)c1cc2c(=O)n3cccc(C)c3nc2n1Cc1ccccc1
2,18.9 µM,Cc1ccc2[nH]c(=O)c(CN(CC3COCCO3)S(=O)(=O)c3ccc(F)cc3)cc2c1 (stereo not given)
3,24.5 µM,Cc1ccc(Cl)cc1NC(=O)c1cc(-c2ccccn2)n[nH]1
4,6.12 µM,O=C(COc1ccc(Cl)cc1Cl)Nc1ccccc1-c1nc2ccccc2[nH]1
5,> 50 µM (inactive),COc1ccc(CC(=O)NCc2ccc3[nH]c(C)cc3c2)cc1
6,> 50 µM (inactive),COc1ccc(NC(=O)COc2ccc3ccc(=O)oc3c2)cc1
7,> 50 µM (inactive),Cc1ccc(C(=O)NCc2ccc(C(=O)Nc3ccc(C)c(C)c3)o2)cc1
8,> 50 µM (inactive),Cc1c(-c2ccc(C#N)cc2)oc2ccc(Br)cc2c1=O
9,> 50 µM (inactive),O=C(Cn1c(=O)n(Cc2ccc3c(c2)OCO3)c(=O)c2ncccc21)c1ccccc1
10,> 50 µM (inactive),O=C(NCc1ccc2c(c1)OCO2)c1nnc(Cc2ccc(F)cc2)o1
11,33.3 µM,COc1ccc(-n2ccn3c(CCC(=O)NCc4ccc(F)cc4)nnc3c2=O)cc1
12,> 50 µM (inactive),CN(C)Cc1ccc(C(=O)Nc2ccc(-c3nccs3)cc2)cc1
13,> 50 µM (inactive),O=C(Cn1c(=O)n(Cc2ccc(F)cc2)c(=O)c2ncccc21)Nc1ccccc1
14,> 50 µM (inactive),O=C(NCc1ccc(Br)cc1)c1ccc(-c2cccnc2)nc1
15,> 50 µM (inactive),CN1CC2CN(C(=O)c3ccc(F)cc3)CCN2Cc2ccccc21 (stereo not given)
16,> 50 µM (inactive),O=c1[nH]c2ccccc2cc1CN(Cc1ccco1)S(=O)(=O)c1ccc(F)cc1

row,IC50,SMILES
1,32.9 µM,O=C(Nc1ccc(F)cc1F)NC1CCN(c2ccccc2)C1=O (stereo not given)
2,49 µM,COc1cc(C#N)c(NC(=NCc2ccc(F)cc2)SC)cc1OC
3,28.5 µM,Cc1nnc(C(=O)Nc2ccc(C(=O)NCc3ccccc3C)cc2)s1
4,> 50 µM (inactive),Cc1ccc(C)c(-n2c(C)cc(/C=C3/C(=N)N4C(c5ccc(F)cc5)=CSC4=NC3=O)c2C)c1
5,> 50 µM (inactive),COc1ccc(N2C(=O)[C@@H]3[C@H]4c5ccccc5C=CN4C(C(=O)Nc4ccc5c(c4)OCO5)[C@@H]3C2=O)cc1 (stereo not given in full)
6,46.7 µM,O=C(Nc1ccccc1Br)c1ccn(COc2ccccc2F)n1
7,26.8 µM,COc1ccc(-n2c(SCC(=O)c3ccc(F)cc3)nnc2-c2cccnc2)cc1
8,> 50 µM (inactive),Cc1ccc2nc(NC(=O)C3CCCN3S(=O)(=O)c3ccc4c(c3)OCCO4)sc2c1 (stereo not given)
9,4.98 µM,O=C(Cn1cc(C(=O)C(F)(F)F)c2ccccc21)N1CCc2ccccc21
10,34.4 µM,O=C(Cn1c(=O)n(-c2ccccc2)c(=O)c2ccc(C(=O)NCc3ccc4c(c3)OCO4)cc21)NCCC1=CCCCC1
11,> 50 µM (inactive),Cc1ccc(Cc2nc(-c3ccc(=O)[nH]c3)no2)cc1
12,29.2 µM,CCOc1ccc2[nH]c(=O)c(CN(C(=O)c3cccs3)C3CCCC3)cc2c1
13,39.3 µM,COc1ccccc1NC(=O)c1cc(-c2ccccn2)nc2ccccc12
14,45.8 µM,COc1ccc(-c2ccnc(-c3ccc(OCc4cccc(F)c4)cc3)n2)cc1
15,28.8 µM,O=C(Nc1ccc2ccccc2n1)c1ccc(Cl)cc1
16,35.4 µM,CCOc1ccc(Nc2cc(C(=O)NCCc3ccccc3)c3ccccc3n2)cc1
